US20070128657A1, “Molecular libraries” (priority 2002, published 2007)

Experiments:
Format in all cases: cell-based, Homo sapiens (human)
[1] = tested on: SW480.7 cells; experiment: Cell proliferation status / death after ligand transfection, SW480.7; conditions: SW480.7, 15 days, without puromycin selection
Procedure: (§1) The purpose of this experiment is to confirm that the selected peptide ligand indeed restores the mutated p53 protein to the wild-type p53 function in SW480.7 cells. […] There might be a chance that the cells got the resistance with, or even without the help of the selected ligand via mechanisms other than p53-transactivated p21 promoter. Thus we should make sure that the mutant p53 in SW480.7 cells functions as wild-type p53 only if the selected ligand is added. […] The selected peptide ligand can be further verified only if it can induce cell cycle arrest or apoptosis in SW480.7 cells but neither in U-2 OS nor in Saos2 cells, which means the specificity of the selected ligand to p53 mutation in SW480.7. • 2—We also tested the transcription levels of genes that are only transactivated by wild-type p53.
(§2) Cells SW480.7, U-2OS, and Sa-os2 were transfected with peptide ligand and pCEP4 parallelly using the calcium phosphate method.
(§3) After transfection, cells were cultured without drug selection and diluted at the ratio of 1:100 every five days. Cell proliferation status was closely observed until ligand transfected SW480.7 cells died out. Life staining with 0.4% trypan blue was applied to determine the death of the cells. Dead cells can not exclude the dye thus were stained blue. Living cells can pump the dye outside thus were not stained. […]

[2] = tested on: U-2 OS (WTp53); experiment: Cell proliferation status after ligand transfection, U-2 OS; conditions: U2-OS, without puromycin selection
Procedure: as §1, §2, §3

[3] = tested on: Saos2 cells (no p53 copy); experiment: Cell proliferation status after ligand transfection, Saos-2; conditions: Saos-2, without puromycin selection
Procedure: as §1, §2, §3

[4] = tested on: R273H/P309S p53 mutant; experiment: RT-PCR of genes transactivated by wild-type p53 in ligand transfected SW480.7 cells
Procedure: as §1
P53 (wild-type) regulates different cell responses via transactivating different downstream genes. For example p53 causes cell cycle arrest at G1 phase by transactivation of p21 gene. While p53 causes cell arrest at G2 phase by transactivation of […]. Apoptosis is due to p53 transactivation of […] and/or Bax gene. Thus we measured p21, CD95, and 14-3-3σ gene transcription levels by RT PCR, to reveal the capability of the selected peptide ligand in restoring the wild-type p53 transactivation of the downstream genes. The expression level of β-actin was measured as a control. β-Actin transcription level was used to normalize total mRNA amount between samples for comparison owing to its constitutive expression in all cells.
After transfection, cells were cultured without drug selection and diluted at the ratio of 1:100 every five days. Cell proliferation status was closely observed until ligand transfected SW480.7 cells died out. Life staining with 0.4% trypan blue was applied to determine the death of the cells. Dead cells can not exclude the dye thus were stained blue. Living cells can pump the dye outside thus were not stained. Total RNA was collected from two wells of one ligand transfected SW480.7 plate and one pCEP4 transfected SW480.7 plate each day on day 0, day 1, and day 2 after transfection. Thus RNA samples were harvested as SW480.7/Ligand-0 day, SW480.7/Ligand-1 day, SW480.7/Ligand-2 day, SW480.7/pCEP4-0 day, SW480.7/pCEP4-1 day, SW480.7/pCEP4-2 day. Protocol for total RNA extraction by TRIZOL® Reagent was according to that given by Life Technology:
cDNA Amplification by PCR
8. Electrophoreses 5 μl of each PCR reaction alongside 0.1 μg of 1-kb DNA ladder on a 1.2% agarose/EtBr gel in 1×TBE buffer.

[5] = ligand transfected SW480.7 compared with empty pCEP4 transfected SW480.7 cells

In the case of “M G W C T (MGWCT; Peptide sequence translated from DNA extracted from library-transfected cells.) [ligand]”, the “Cell growth status after transfection of the ligand” value (from here on “Cell growth status”) [1] is reported as “could no longer attach to the wall and died”, the “Cell growth status” value [2] is reported as “growing well” and the “Cell growth status” value [3] is reported as “growing well”. For the same substance, the “Restoration of wild type p53 function (RT-PCR analysis of mRNA)” value ([4]; ligand transfected SW480.7 cells) was “can reestablish wild type p53 function”, the “mRNA level of 14-3-3 gene” value [4, 5] was “Higher” and the “mRNA level of CD95 gene” value [4, 5] was “Higher”. For the same substance, the “mRNA level of p21 (WAF1/Cip1) gene” value [4, 5] was “Higher”.
